For assay [1], the system named is acetic acid-cautery type gastric ulcer. Briefly: Effect on gastric ulcer of rats induced by acetic acid cautery. In kind it is in vivo, Wistar rats. The settings on record: 200 mg/kg i.g. once per day for 13 days; X ± SD, n = 10. The protocol:
Eighty Wistar rats weighing between 200-220 g were selected in this experiment, male and female in half, and were randomly divided into 8 groups, 10 rats per group. Drugs were continually administered i.g. with the dosage listed in Table 2 for 13 days, once per day, while the model control group was administered i.g. with the same volume of vegetable oil. The model was established after 2 hours of the third administration. The rats were fasted for 24 hours before model-establishing and anaesthetized by ether, their abdomens were shaved and sterilized. A small incision was cut along the midline of the xiphoid. The stomach was gently pulled out, 10 μL 40% acetic acid was injected underneath the stomach chorion near pyloric gland areas. The stomach was then put back to the abdomen, and the incision was sewed up. Drugs were administered after operation. The rats were fasted for 24 hours after the last administration, and the animals were executed after being anaesthetized by urathane. […] After rinsing the content of stomach with saline, the stomach was fixed with 1% formaldehyde for 10 min, and then the diameters of ulcer points were measured using precise calipers and the ulcer areas were calculated. Ink was injected with a micro-syringe until its level reached the surface of gastric mucous membrane, and the volume of the injected ink was recorded. […]

The subject of assay [2] is gastric ulcers of pyloric ligation type. Briefly: Effect on gastric ulcers of pyloric ligation type in rats. The format is in vivo, Wistar rats. The settings on record: 200 mg/kg i.g. once per day for 3 days; 5 grades by Okabe's method; X ± SD, n = 10. The protocol:
Eighty Wistar rats weighing about 160 g were selected in this experiment, male and female in half, and were randomly divided into 8 groups, 10 rats per group. Drugs were continually administered i.g. with the dosage listed in Table 3 for 3 days, once per day, while the model control group was administered i.g. with the same volume of vegetable oil. The animals were anaesthetized by ether after 2 hours of the last administration (the rats were fasted for 48 hours before administration), and their abdomens were shaved and sterilized. A small incision was cut below the xiphoid. Their stomach was gently pulled out, and the stomach was then put back to the abdomen after pyloric ligation, and the incision was sewed up. After operation, the rats were abstained from food and water for 6 hours and executed after anaesthesia. The abdomen was cut open, the cardia was ligated, and the whole stomach was taken out and cut open along the greater curvature of stomach. After rinsing the content of stomach with saline, the stomach was fixed with 1% formaldehyde for 10 min, and then the diameters of the ulcer points were measured using precise calipers. Degree of the ulcer was expressed by total area of all ulcer points of each rat and was classified into 5 grades according to Okabe's method as index of ulcer.

The structures appear in SMILES notation. Marks after values point to notes of the source that are not given here.

In the case of `CNC(=C[N+](=O)[O-])NCCSCc1ccc(CN(C)C)o1` [Ranitidine], in assay [1], the Ulcer area is 8.08 ± 5.72** mm^2 and the “Volumes of injected ink in ulcer region” value came to 2.85 ± 2.63 µL. Moreover, the “Index of Ulcer” value in assay [2] was found to be 0.8 ± 0.6.

The values above are taken from patent US8586108B2, “Extracts of Chenopodium ambrosioides L., the compositions comprising said extracts, the preparing process and application thereof” (Tasly Pharmaceutical Group Co., Ltd, priority 2005, dated 2013).
